The record followed here is US8927500B2, “Peptidomimetic macrocycles” (Aileron Therapeutics, Inc., priority 2012, dated 2015).

One assay has as its target MDM2 (Homo sapiens, UniProt Q00987). Description: Competitive fluorescence polarization assay for MDM2. In kind it is binding. Conditions: competitive FP assay, MDM2; for IC50: read-out: IC50 (MDM2); for Ki: read-out: Ki (MDM2). On the technique in general: Fluorescence polarisation rises when a labelled molecule tumbles more slowly, as on binding a larger partner.
Another assay addresses T1, MDMX (Homo sapiens, UniProt O15151).
T1 sequence (O15151 1-125): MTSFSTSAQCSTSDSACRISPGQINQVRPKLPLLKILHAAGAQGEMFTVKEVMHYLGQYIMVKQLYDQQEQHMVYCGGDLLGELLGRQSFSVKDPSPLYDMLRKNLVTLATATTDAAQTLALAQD
Briefly: Competitive fluorescence polarization assay for MDMX. In kind it is binding. The settings on record: competitive FP assay; for IC50: read-out: IC50 (MDMX); for Ki: read-out: Ki (MDMX).

Where a SMILES comes first, the peptide text is derived from it. Bridges are numbered along the chain shown (N, C = ends). [ ]: non-standard residue; d: D form. R8 = C=CCCCCCC[C@@](C)(N)C(=O)O; Cba = N[C@@H](CC1CCC1)C(=O)O; S5 = C=CCCC[C@](C)(N)C(=O)O; Nle = CCCC[C@H](N)C(=O)O Bounds are passed on as bounds.

MDM2, sequence (Q00987 1-125): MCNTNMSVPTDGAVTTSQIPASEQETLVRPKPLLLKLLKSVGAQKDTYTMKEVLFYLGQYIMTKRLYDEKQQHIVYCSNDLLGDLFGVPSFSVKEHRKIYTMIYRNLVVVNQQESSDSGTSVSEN

With `CC(=O)N[C@@H](CC(=O)O)C(=O)N[C@@H](CC(C)C)C(=O)N[C@H](C(=O)N[C@@H](Cc1ccccc1)C(=O)N[C@]1(C)CCCCCCC=CCCC[C@@](C)(C(=O)N[C@@H](CCCNC(=N)N)C(=O)N[C@@H](CCCNC(=N)N)C(=O)N[C@@H](CC(C)C)C(=O)N[C@H](C)C(N)=O)NC(=O)[C@H](CC(C)C)NC(=O)[C@H](CCC(N)=O)NC(=O)[C@H](Cc2c[nH]cn2)NC(=O)[C@H](Cc2c[nH]c3ccccc23)NC(=O)[C@H](Cc2c[nH]cn2)NC(=O)[C@H](Cc2c[nH]cn2)NC1=O)[C@@H](C)O` [compound 52] (Ac-DLTF[R8]HHWHQL[S5]RRL[dA]-NH2; staple 5-12), on MDM2, the IC50 is 10 to 100 nM and the Ki is under 10 nM. At MDMX, the IC50 fell in the range of 10 to 100 nM and the Ki is under 10 nM.

Consider `CC(=O)N[C@@H](Cc1ccccc1)C(=O)N[C@]1(C)CCCCCCC=CCCC[C@@](C)(C(=O)N[C@@H](CCCNC(=N)N)C(=O)N[C@@H](CCCNC(=N)N)C(=O)N[C@@H](CC(=O)O)C(=O)N[C@@H](C)C(N)=O)NC(=O)[C@H](CC(C)C)NC(=O)[C@H](CCC(N)=O)NC(=O)[C@H](Cc2c[nH]cn2)NC(=O)[C@H](Cc2c[nH]c3ccccc23)NC(=O)[C@H](Cc2c[nH]cn2)NC(=O)[C@H](Cc2c[nH]cn2)NC1=O` [compound 54] (Ac-F[R8]HHWHQL[S5]RRDA-NH2; staple 2-9), for which, on MDM2, the IC50 fell in the range of 100 to 1000 nM and the Ki lay within 10 to 100 nM. Besides, on MDMX, the IC50 was in the range of 100 to 1000 nM and the inhibition constant (Ki) was in the range of 10 to 100 nM.

With `CC(=O)N[C@@H](CCC(=O)O)C(=O)N[C@H](C(=O)N[C@@H](Cc1ccccc1)C(=O)N[C@]1(C)CCCCCCC=CCCC[C@@](C)(C(=O)N[C@@H](CO)C(=O)N[C@@H](C)C(=O)N[C@H](C)C(N)=O)NC(=O)[C@H](CC(C)C)NC(=O)[C@H](CCC(N)=O)NC(=O)[C@H](C)NC(=O)[C@H](Cc2c[nH]c3ccccc23)NC(=O)[C@H](Cc2ccc(O)cc2)NC(=O)[C@H](C(C)C)NC1=O)[C@@H](C)O` [compound 124] (Ac-ETF[R8]VYWAQL[S5]SA[dA]-NH2; staple 4-11), at MDM2, the IC50 was under 10 nM and the Ki was under 10 nM. Moreover, on MDMX, the IC50 was 100 to 1000 nM and the Ki was 10 to 100 nM.

Turning to `CC(=O)N[C@@H](CCC(=O)O)C(=O)N[C@H](C(=O)N[C@@H](Cc1ccccc1)C(=O)N[C@]1(C)CCCCCCC=CCCC[C@@](C)(C(=O)N[C@@H](CO)C(=O)N[C@@H](Cc2c[nH]c3ccccc23)C(=O)N[C@@H](C)C(N)=O)NC(=O)[C@H](CC(C)C)NC(=O)[C@H](CCC(N)=O)NC(=O)[C@H](C)NC(=O)[C@H](Cc2c[nH]c3ccccc23)NC(=O)[C@H](Cc2ccc(O)cc2)NC(=O)[C@H](C(C)C)NC1=O)[C@@H](C)O` [compound 128] (Ac-ETF[R8]VYWAQL[S5]SWA-NH2; staple 4-11), at MDM2, the IC50 is under 10 nM and the inhibitory constant (Ki) is under 10 nM. At MDMX, the IC50 is 100 to 1000 nM and the Ki was 10 to 100 nM.

Consider `CC(=O)N[C@@H](CCC(=O)O)C(=O)N[C@H](C(=O)N[C@@H](Cc1ccccc1)C(=O)N[C@]1(C)CCCCCCC=CCCC[C@@](C)(C(=O)N[C@@H](CO)C(=O)N[C@@H](Cc2c[nH]c3ccccc23)C(=O)N[C@@H](C)C(N)=O)NC(=O)[C@H](CC(C)C)NC(=O)[C@H](CCC(N)=O)NC(=O)[C@H](C)NC(=O)[C@H](Cc2c[nH]c3ccccc23)NC(=O)[C@H](Cc2ccc(O)cc2)NC(=O)[C@H](CCCCN)NC1=O)[C@@H](C)O` [compound 129] (Ac-ETF[R8]KYWAQL[S5]SWA-NH2; staple 4-11), for which, at MDM2, the IC50 was under 10 nM and the Ki is under 10 nM. Besides, on MDMX, the IC50 was 100 to 1000 nM and the Ki was in the range of 10 to 100 nM.

On to `CC(=O)N[C@@H](CC(C)C)C(=O)N[C@H](C(=O)N[C@@H](Cc1ccccc1)C(=O)N[C@]1(C)CCCCCCC=CCCC[C@@](C)(C(=O)N[C@@H](CO)C(=O)N[C@@H](CO)C(=O)N[C@H](C)C(N)=O)NC(=O)[C@H](CC(C)C)NC(=O)[C@H](CCC(N)=O)NC(=O)[C@H](C)NC(=O)[C@H](Cc2c[nH]c3ccccc23)NC(=O)[C@H](Cc2ccc(O)cc2)NC(=O)[C@H](C(C)C)NC1=O)[C@@H](C)O` [compound 133] (Ac-LTF[R8]VYWAQL[S5]SS[dA]-NH2; staple 4-11), for which, at MDM2, the IC50 is under 10 nM and the Ki was under 10 nM. In addition, at MDMX, the IC50 was in the range of 100 to 1000 nM and the Ki fell in the range of 10 to 100 nM.

Take `CC(=O)N[C@@H](CCC(=O)O)C(=O)N[C@H](C(=O)N[C@@H](Cc1ccccc1)C(=O)N[C@]1(C)CCCCCCC=CCCC[C@@](C)(C(=O)N[C@@H](CO)C(=O)N[C@@H](CO)C(=O)N[C@H](C)C(N)=O)NC(=O)[C@H](CC(C)C)NC(=O)[C@H](CCC(N)=O)NC(=O)[C@H](C)NC(=O)[C@H](Cc2c[nH]c3ccccc23)NC(=O)[C@H](Cc2ccc(O)cc2)NC(=O)[C@H](C(C)C)NC1=O)[C@@H](C)O` [compound 134] (Ac-ETF[R8]VYWAQL[S5]SS[dA]-NH2; staple 4-11): at MDM2, the concentration for half-maximal inhibition (IC50) was under 10 nM and the Ki was under 10 nM. Also, at MDMX, the IC50 lay in the range of 100 to 1000 nM and the Ki fell in the range of 10 to 100 nM.

Turning to `CC(=O)N[C@@H](CC(C)C)C(=O)N[C@H](C(=O)N[C@@H](Cc1ccccc1)C(=O)N[C@]1(C)CCCCCCC=CCCC[C@@](C)(C(=O)N[C@@H](CO)C(=O)N[C@@H](CC(N)=O)C(=O)N[C@H](C)C(N)=O)NC(=O)[C@H](CC(C)C)NC(=O)[C@H](CCC(N)=O)NC(=O)[C@H](C)NC(=O)[C@H](Cc2c[nH]c3ccccc23)NC(=O)[C@H](Cc2ccc(O)cc2)NC(=O)[C@H](C(C)C)NC1=O)[C@@H](C)O` [compound 135] (Ac-LTF[R8]VYWAQL[S5]SN[dA]-NH2; staple 4-11), at MDM2, the IC50 was under 10 nM and the Ki was under 10 nM. Besides, on MDMX, the IC50 fell in the range of 100 to 1000 nM and the Ki is 10 to 100 nM.

Regarding `CC(=O)N[C@@H](CCC(=O)O)C(=O)N[C@H](C(=O)N[C@@H](Cc1ccccc1)C(=O)N[C@]1(C)CCCCCCC=CCCC[C@@](C)(C(=O)N[C@@H](CO)C(=O)N[C@@H](CC(N)=O)C(=O)N[C@H](C)C(N)=O)NC(=O)[C@H](CC(C)C)NC(=O)[C@H](CCC(N)=O)NC(=O)[C@H](C)NC(=O)[C@H](Cc2c[nH]c3ccccc23)NC(=O)[C@H](Cc2ccc(O)cc2)NC(=O)[C@H](C(C)C)NC1=O)[C@@H](C)O` [compound 136] (Ac-ETF[R8]VYWAQL[S5]SN[dA]-NH2; staple 4-11), on MDM2, the half-inhibitory concentration (IC50) was under 10 nM and the Ki was under 10 nM. Further, on MDMX, the IC50 lay within 100 to 1000 nM and the Ki lay within 10 to 100 nM.

As to `CC[C@H](C)[C@H](NC(=O)[C@H](C)NC(=O)[C@H](C)NC(=O)[C@]1(C)CCCC=CCCCCCC[C@@](C)(NC(=O)[C@H](Cc2ccccc2)NC(=O)[C@@H](NC(=O)[C@H](CC(C)C)NC(C)=O)[C@@H](C)O)C(=O)N[C@@H](C)C(=O)N[C@@H](CCC(=O)O)C(=O)N[C@@H](Cc2c[nH]c3ccccc23)C(=O)N[C@@H](C)C(=O)N[C@@H](CCC(N)=O)C(=O)N[C@@H](CC(C)C)C(=O)N1)C(=O)N[C@H](C)C(N)=O` [compound 180] (Ac-LTF[R8]AEWAQL[S5]AAI[dA]-NH2; staple 4-11), on MDM2, the 50% inhibitory concentration (IC50) fell in the range of 10 to 100 nM and the Ki is under 10 nM. Moreover, at MDMX, the 50% inhibitory concentration (IC50) was in the range of 100 to 1000 nM and the Ki was in the range of 10 to 100 nM.

`CC[C@H](C)[C@H](NC(C)=O)C(=O)N[C@H](C(=O)N[C@@H](Cc1ccccc1)C(=O)N[C@]1(C)CCCCCCC=CCCC[C@@](C)(C(=O)N[C@@H](C)C(=O)N[C@@H](CCC(=O)O)C(=O)N[C@@H](Cc2ccccc2)C(=O)N[C@@H](C)C(N)=O)NC(=O)[C@H](CC(C)C)NC(=O)[C@H](CCC(N)=O)NC(=O)[C@H](C)NC(=O)[C@H](Cc2c[nH]c3ccccc23)NC(=O)[C@H](Cc2c[nH]cn2)NC(=O)[C@H](Cc2ccccc2)NC1=O)[C@@H](C)O` [compound 186] (Ac-ITF[R8]FHWAQL[S5]AEFA-NH2; staple 4-11): the figures for the IC50 at MDM2 and at MDMX were 10 to 100 nM and 100 to 1000 nM, respectively. Besides, the inhibition constant (Ki) on MDM2 is under 10 nM; on MDMX, 10 to 100 nM.

`CC[C@H](C)[C@H](NC(C)=O)C(=O)N[C@H](C(=O)N[C@@H](Cc1ccccc1)C(=O)N[C@]1(C)CCCCCCC=CCCC[C@@](C)(C(=O)N[C@@H](C)C(=O)N[C@@H](Cc2c[nH]cn2)C(=O)N[C@@H](Cc2ccccc2)C(=O)N[C@@H](C)C(N)=O)NC(=O)[C@H](CC(C)C)NC(=O)[C@H](CCC(N)=O)NC(=O)[C@H](C(C)C)NC(=O)[C@H](Cc2c[nH]c3ccccc23)NC(=O)[C@H](Cc2ccc(O)cc2)NC(=O)[C@H](CCC(=O)O)NC1=O)[C@@H](C)O` [compound 192] (Ac-ITF[R8]EYWVQL[S5]AHFA-NH2; staple 4-11): at MDM2, the IC50 lay within 10 to 100 nM and the Ki is under 10 nM. In addition, on MDMX, the IC50 was 100 to 1000 nM and the inhibitory constant (Ki) is 10 to 100 nM.

Regarding `CC[C@H](C)[C@H](NC(=O)[C@H](Cc1c[nH]cn1)NC(=O)[C@H](C)NC(=O)[C@]1(C)CCCC=CCCCCCC[C@@](C)(NC(=O)[C@H](Cc2ccccc2)NC(=O)[C@@H](NC(=O)[C@H](CC(C)C)NC(C)=O)[C@@H](C)O)C(=O)N[C@@H](C)C(=O)N[C@@H](Cc2c[nH]cn2)C(=O)N[C@@H](Cc2c[nH]c3ccccc23)C(=O)N[C@@H](C)C(=O)N[C@@H](CCC(N)=O)C(=O)N[C@@H](CC(C)C)C(=O)N1)C(=O)N[C@H](C)C(N)=O` [compound 207] (Ac-LTF[R8]AHWAQL[S5]AHI[dA]-NH2; staple 4-11), on MDM2, the IC50 is under 10 nM and the Ki is under 10 nM. For the same compound, on MDMX, the IC50 fell in the range of 100 to 1000 nM and the Ki is 10 to 100 nM.

For the compound `CCCC[C@H](NC(=O)[C@H](C)NC(=O)[C@H](C)NC(=O)[C@]1(C)CCCC=CCCCCCC[C@@](C)(NC(=O)[C@H](Cc2ccccc2)NC(=O)[C@@H](NC(=O)[C@H](CC(C)C)NC(C)=O)[C@@H](C)O)C(=O)N[C@@H](C)C(=O)N[C@@H](Cc2ccc(O)cc2)C(=O)N[C@@H](Cc2c[nH]c3ccccc23)C(=O)N[C@@H](C)C(=O)N[C@@H](CCC(N)=O)C(=O)N[C@@H](CC2CCC2)C(=O)N1)C(=O)N[C@@H](C)C(N)=O` [compound 236] (Ac-LTF[R8]AYWAQ[Cba][S5]AA[Nle]A-NH2; staple 4-11), on MDM2, the IC50 fell in the range of 10 to 100 nM and the Ki is under 10 nM. For the same compound, on MDMX, the IC50 fell in the range of 100 to 1000 nM and the Ki is 10 to 100 nM.

The term IC50 denotes the midpoint of a concentration-inhibition curve. For orientation: Ki means the equilibrium dissociation constant of an inhibitor or competing ligand from its target.
